Laboratory results reported in PMC11009625, “Antibiotic class with potent in vivo activity targeting lipopolysaccharide synthesis in Gram-negative bacteria” (Proceedings of the National Academy of Sciences of the …, 2024).
In brackets after ≈: the same amount, converted by molar mass. Where two headings read alike, the source gives them in different places.

Tests used:
E. coli ATCC 25922 = experiment: Frequency of resistance and agar MIC, E. coli; type: cell-based; conditions: Escherichia coli, ATCC25922, read-out: Agar MIC E. coli ATCC 25922
Experimental: (§1) Minimum inhibitory concentration (MIC) values were determined according to the Clinical Laboratory Standards Institute guidelines. Frequency of resistance was determined by plating ~5 × 10^8 bacterial cells on agar-solidified media plates containing test compound at concentrations corresponding to four times the measured solid-media MIC of the strains. Colonies were counted after 24 h, restreaked onto media containing the same concentration of compound, and the MIC remeasured against the assayed compound. Genomic DNA from isolated clones was sequenced by paired-end sequencing on an Illumina MiSeq device. Complete experimental details available in SI Appendix. […]
Minimum inhibitory concentration (MIC) determination. […] Appropriate inoculation suspension density was assessed using a Sensititre Nephelometer with a Sensititre 0.5 […]
Frequency of Resistance. Frequency of resistance was assessed by spread plating between […] cfu of a freshly-grown culture of the strain of interest on plates containing a concentration of compound corresponding to 4 times the MIC of the strain (as determined by agar-dilution MIC). […] The frequency of resistance was determined by dividing the number of colonies obtained on the selective plates after 24 hours of growth by the calculated total population plated. […]

[1] = tested on: P. mirabilis ATCC 7002 and tolC::Tn5-kan2 EN1490; experiment: MIC, P. mirabilis laboratory strains; type: cell-based; conditions: Proteus mirabilis
Experimental: as §1
(§2) Minimum inhibitory concentration (MIC) determination. Broth microdilution and agar dilution MIC assays were conducted according to CLSI guidelines (M07-2012). Appropriate inoculation suspension density was assessed using a Sensititre Nephelometer with a Sensititre 0.5 […]
(§3) McFarland Standard. […]
Strain construction. The efflux-defective P. mirabilis strain EN1490 was constructed using EZ-Tn5 <KAN-2> Transposome mutagenesis with TypeOne Restriction Inhibitor. Approximately 3000 independent clones were screened for increased susceptibility to chloramphenicol (8 mg/L), yielding 2 independent clones with insertions in the gene tolC. […]

[2] = tested on: clinical MDR E. coli isolates; experiment: MIC, clinical multi-drug resistant E. coli isolates; type: cell-based; conditions: Escherichia coli
Experimental: as §1, §2, §3
Whole-genome sequencing and data analysis. Genomic DNA of selected clones was prepared using an Epicentre MasterPure Complete DNA Purification Kit. Whole-genome sequencing libraries were prepared using an Illumina Nextera XT Library Preparation Kit. The libraries were sequenced using an Illumina MiSeq device with a V3 600-cycle reagent kit. Whole-genome sequencing data was analyzed using CLC Genomics Workbench Version 11. To determine the genotype of MDR strains from the ENABLE strain collection, de novo assembled contigs were […]

in vivo = experiment: in vivo; set-up: species or system NMRI mice; conditions: female, NMRI, mouse, sc
Experimental: PK and safety studies were done the Latvian Institute for Organic Synthesis (Riga, Latvia) and in vivo efficacy studies were done at Statens Serum Institut (Copenhagen, Denmark). Assays were done in accordance with the relevant permits at the respective sites (SI Appendix). For PK studies, plasma samples were taken from mice dosed subcutaneously and the samples were analyzed by UPLC/MS/MS. For in vivo efficacy studies, neutropenic mice were infected intraperitoneally with 10^6 bacteria and treated with subcutaneously with test compounds 1 h after infection. The mice were euthanized 4 h after treatment and serially diluted samples of blood and peritoneal fluid were plated onto blood agar plates. Complete experimental details available in SI Appendix. […]
In vivo pharmacokinetic studies
Animals. NMRI female mice (10–12 weeks old, 27–33 g, n = 60) were obtained from ENVIGO (The Netherlands) and housed prior to treatment under standard conditions (21–23 °C, 12-h light/dark cycle, relative humidity 45%–65%) with unlimited access to food (R70 diet from […]
Lantmännen) and water. The experimental procedures were performed in accordance with the guidelines of the European Community and local laws and policies (Directive 2010/63/EU), and all of the procedures were approved by Food and Veterinary Service, Riga, Latvia. […]
PK assay in mice. For PK studies mice were dosed subcutaneously (SC) via a single bolus injection (injection volume 10 mL/kg). Blood samples were collected in tubes containing heparin. Blood was sampled from tail vein 15, 30, 60, 120, and 240min after the SC administration of the compounds. Tubes were centrifuged at +4 °C 10,000× g for 3 min. Plasma samples were collected and stored at −20 °C until analysis.
Plasma sample analysis by UPLC/MS/MS. Concentrations of EBL-3599 and EBL-3647 in mouse blood plasma were measured by liquid chromatography tandem mass spectrometry (LC/MS/MS) in positive electrospray ionization (ESI+) in multi reaction monitoring (MRM) mode.
Analyses were performed on a Waters Acquity UPLC system coupled to Waters XEVO TQ-Smicro tandem mass spectrometer. Chromatographical separation was carried out on Waters Acquity BEH C18 column (2.1×50mm, 1.7µm). The column temperature was 30°C, flow rate was 0.4mL/min. Linear gradient elution was applied, solvent A was 0.1% formic acid in water and solvent B was acetonitrile. The gradient program was: 0min – 5% B; 2.5min – 98% B; 4.5min – 98% B; 4.7min – 5% B; 5min – 5% B. Injection volume was 1µL.
Mass spectrometry parameters were obtained experimentally by direct infusion of EBL-3599 and […]
energy was 30 for all transitions. MS/MS transitions for EBL-3647 were 667.80 > 225.90 and 667.80 > 309.96. Cone voltage was 15V and collision energy was 35 and 25, respectively.
Calibration standards and quality control samples were prepared by spiking a blank mouse plasma with a stock solution of analyte to achieve a nominal concentration from 0.08 μg/mL to 80 μg/mL for both analyte.
A sample volume of 20 μL was transferred into a plastic tube and mixed with 300μL acetonitrile/methanol mixture (3:1, v/v) to precipitate proteins. The tubes was vortexed to mix and centrifuged at 10000 rpm for 10 min. 200 μL of supernatant was diluted with 600 μL of 0.1% formic acid and subjected to LC/MS/MS analysis. Samples above the upper limit of calibration should be diluted 10 times with blank plasma extract and reanalyzed. Bioanalysis of samples from each mouse were measured in duplicate and the results averaged.
Bacterial strains and inoculum. E. coli EC 106-09 (EN122) and K. pneumoniae SSI #3010 (EN124) are clinical isolates from Denmark. Bacterial suspensions for inoculation of mice were prepared

[3] = ATCC7002, read-out: MIC P. mirabilis ATCC 7002
[4] = ATCC7002, read-out: MIC P. mirabilis EN1490

Row | SMILES | MIC (E. coli ATCC 25922) [µg/mL] | MIC [1, 3] [µg/mL] | MIC [1, 4] [µg/mL] | MIC ([2]; read-out: MIC E. coli EN0134) [µg/mL] | MIC ([2]; read-out: MIC E. coli EN0135) [µg/mL] | MIC ([2]; read-out: MIC E. coli EN0136) [µg/mL] | MIC ([2]; read-out: MIC E. coli EN0137) [µg/mL] | MIC ([2]; read-out: MIC E. coli EN0138) [µg/mL] | MIC ([2]; read-out: MIC E. coli EN0139) [µg/mL] | MIC ([2]; read-out: MIC E. coli EN0303) [µg/mL] | MIC ([2]; read-out: MIC E. coli EN0481) [µg/mL] | AUC (in vivo; 10 mg/kg) [ng·h/mL] | Cmax (in vivo; 10 mg/kg) [ng/mL] | AUC (in vivo; 25 mg/kg) [ng·h/mL] | Cmax (in vivo; 25 mg/kg) [ng/mL] | AUC (in vivo; 50 mg/kg) [ng·h/mL] | Cmax (in vivo; 50 mg/kg) [ng/mL] | AUC (in vivo; 100 mg/kg) [ng·h/mL] | Cmax (in vivo; 100 mg/kg) [ng/mL]
1 | Cc1cc(C#N)nc(N2CCN(S(=O)(=O)c3ccc(NC(=O)c4cc(CNCCCN)ccc4N(C)S(C)(=O)=O)cc3)CC2)n1.Cl.Cl [EBL-3599] | 2 | > 64 | 4 | 2 | 2 | 2 | 4 | 2 | 4 | 16 | 2 | 22900 | 13000 | 58000 | 27000 | 136000 | 65000 | 349000 | 142000
2 | Cc1cc(C#N)nc(N2CCN(S(=O)(=O)c3ccc(NC(=O)c4cc(CN5CC(CN)C5)ccc4N(C)S(C)(=O)=O)cc3)CC2)n1 [EBL-3647] | 2 (≈ 2.99 µM) | > 64 | 16 (≈ 24 µM) | 2 (≈ 2.99 µM) | 2 (≈ 2.99 µM) | 4 (≈ 5.99 µM) | 2 (≈ 2.99 µM) | 4 (≈ 5.99 µM) | 4 (≈ 5.99 µM) | 16 (≈ 24 µM) | 1 (≈ 1.5 µM) | 20200 | 12000 | 55300 | 30000 | 140000 | 72000 | 222000 | 130000
